Patent US8258295B2, “Triazine derivatives, compositions containing such derivatives, and methods of treatment of cancer and autoimmune diseases using such derivatives” (Prometic Biosciences Inc., priority 2007, dated 2012)
Where two headings read alike, the source gives them in different places.

Columns and labels:
PBML cytotoxicity (MTT) = format: cell-based, human; conditions: human, resting PBML
Text: (§1) PBML were obtained from the peripheral blood of healthy volunteers. Blood was submitted to gradient centrifugation with Lympholyte-Poly media (Cedarlane, Hornby, Canada). The layer containing the mononuclear leukocytes was collected and the cells washed three times in PBS. Cells were then suspended in RPMI (Gibco, Burlington, Canada) supplemented with 10% FBS (Hyclone, Logan USA). Viability was greater than 99% as determined by trypan blue exclusion.
(§2) PBML were resuspended at 2×10^6 cells/ml. 100 μl of PBML (2×10^5 cells) were incubated in a 96-well microtiter plate for 48 hr in the presence or absence of compound. Cells were quiescent or stimulated with concanavalin A (con A; T-cells) or pokeweed mitogen (PWM; B-cells). After incubation, cells were treated with MTT (cytotoxicity) or pulsed with 1 μCi of [^3H]-thymidine (DNA synthesis), [^3H]-uridine (RNA synthesis), or [^3H]-leucine (protein synthesis) for 6 hr. Plates were harvested on a Tomteck and counted on a Microbeta β-counter.

[1] = tested on: peripheral blood mononuclear leukocytes (PBML); assay: PBML cytotoxicity (MTT); format: cell-based, human; conditions: 48 hr
Text: as §1, §2

[2] = tested on: HUVEC (human umbilical vein endothelial cell); assay: MTT cytotoxicity on HUVEC; format: cell-based
Method: (§3) This assay was performed to determine the effect of compounds of the present invention on cell cytotoxicity. Cells were incubated in presence or absence of compounds in their respective conditioned media. After 24 hr or 72 hr incubation, 50 μl of 3-(4,5-dimethyl-2-thiazyl)-2,5-diphenyl-2H-tetrazolium bromide (MTT; 2 mg/ml) was added and further incubated for 4 hr. The supernatant was discarded and 100 μl of dimethylsulfoxide (DMSO) was added. Absorbance was read at 570 nm with a TecanSunrise ELISA plate reader. The control group consisted of cells without compounds and is referred to as 100% of viable cells. IC50 was determined using Prism software.
(§4) All compounds have weak effect on cell cytotoxicity. The predictive utility of cell based cytotoxicity assays to assess the potential in vivo anticancer activity of compounds with selected cancer cell lines is well established in the art and the use of whole cells, instead of isolated protein receptors or enzymes, provides a more reliable determination of activity. See, for example, Paull et al. (J. Nat'l Cancer Inst. 81:1088-1092, 1989); Monks et al. (J. Nat'l Cancer Inst. 83:757-766, 1991); Bandes et al. (J. Nat'l Cancer Inst. 86:770-775, 1994); and Kamate et al. (Int'l J. Cancer 100:571-579, 2002).

[3] = tested on: PC-3 human prostate carcinoma cell; assay: MTT cytotoxicity on PC-3; format: cell-based
Method: as §3, §4

PC-3 cells = assay: In vitro PC-3 cell migration or invasion assay (EGF-induced); format: cell-based, human; conditions: mitomycin C treated cells, 24 hr
Method: An in vitro migration assay was used to assess cell mobility in two dimensions. PC-3 cells were plated on a 12-well plate and grown to confluence in RPMI+10% FBS. A rubber policeman was used to create a denuded area. Confluent cells were quiesced by mitomycin C treatment (0.5 μM) at the concentration used to prevent the confounding issue of cell proliferation and protein synthesis. These cells were also incubated in the presence or absence of […] growth factor (EGF) and compound for 24 hr, then they were photographed.
The effects of EGF and compound V on PC-3 cell migration or invasion in the in vitro migration assay were determined. EGF promotes the migration or invasion of PC-3 cells treated with mitomycin compared to control (i.e., no added EGF).

TNFα production = assay: LPS-induced TNFα production in J774A.1 cells (ELISA); format: cell-based; conditions: Mus musculus, J774.A1, 24 hr
Method: Effect of compounds on TNFα production was measured by ELISA using J774A.1 cells stimulated by LPS. J774A.1 cells were cultured in the presence or absence of LPS and compound. Cells were cultured for 24 hr at 37° C. and thereafter the supernatants were collected for the determination of the concentration of TNFα by ELISA as recommended by the manufacturer (BD Biosciences). Data was analyzed in Microsoft Excel software and the concentration of compound which inhibits 50% of TNFα production (IC50) was calculated using Prism software.

[4] = tested on: LPS-induced inflammation in the rat air-pouch model; assay: LPS-induced inflammation in rat air-pouch model; format: in vivo, rats; conditions: IV; for PGE2 production induced by LPS / TNFα production induced by LPS / LTB4 production induced by LPS / MCP-1 production induced by LPS: pouch exudate; for LTB4 production induced by LPS: FIG. 20C; for MCP-1 production induced by LPS: FIG. 20D; for white blood cell count: two hours after LPS induction, FIG. 19
Text: LPS-induced inflammation in the rat air-pouch model is believed to mimic the pathological process occurring in joint diseases such as arthritis. This is because the connective tissues formed along the air pouch are similar to those found in chronic joint diseases. LPS-induced inflammation and chronic joint diseases share other features, including markedly elevated PGE2, neutrophil infiltration, cytokine formation, and tissue damage.
An air cavity was produced at day −6 by subcutaneous injection of 20 ml of sterile air into the intrascapular area of the back of male Lewis rats (175 to 200 g). An additional 10 ml of air was injected into the cavity at day −3 to keep the space open. At day 0, compounds were administered intravenously and one hour later lipopolysaccharide (LPS: 2.5 ml of 2 μg/ml in PBS) was injected into the pouch to produce an inflammatory reaction. […] The pouch fluid was collected. The volume of exudates was measured and the number of leukocytes present in the exudates was determined with a Coulter counter. The differential count was determined by Wright-Giemsa staining. PGE2, LTB4, MCP, and TNFα were determined in the pouch exudates by specific ELISAs.

[5] = PWM stimulated PBML, read-out: Cytotoxicity PWM
[6] = con A stimulated PBML, read-out: Cytotoxicity Con A
[7] = 24 hr culture, read-out: IC50 of 24-hour culture HUVEC
[8] = 72 hr culture, read-out: IC50 of 72-hour culture HUVEC
[9] = 24 hr culture, read-out: IC50 of 24-hour culture PC-3
[10] = 72 hr culture, read-out: IC50 of 72-hour culture PC-3
[11] = twelve hours after induction, FIG. 21B
[12] = twelve hours post-LPS induction, FIG. 21A
[13] = two hours after induction, FIG. 20A
[14] = two hours after induction, FIG. 20B

SMILES | IC50 at 48 h (PBML cytotoxicity (MTT)) | IC50 [1, 5] | IC50 [1, 6] | IC50 [2, 7] | IC50 [2, 8] | IC50 [3, 9] | IC50 [3, 10] | EGF-induced PC-3 migration or invasion (PC-3 cells; 1 μM to 10 μM) | IC50 (TNFα production) | PGE2 production induced by LPS [4, 11] | TNFα production induced by LPS [4, 12] | TNFα production induced by LPS [4, 13] | PGE2 production induced by LPS [4, 14] | LTB4 production induced by LPS ([4]; two hours after induction) | MCP-1 production induced by LPS ([4]; two hours after induction) | white blood cell count [4] | EGF-induced PC-3 migration or invasion (PC-3 cells; 1 μM to 20 μM)
NCCCCCNc1nc(NCCc2ccc(O)cc2)nc(Nc2ccc(F)cc2)n1 [Compound V] | > 10 µM | > 10 µM | > 10 µM | 31.8 µM | > 100 µM | 43.3 µM | 26.8 µM | inhibition of the EGF-induced PC-3 migration or invasion | 13 µM | significant inhibition | significant inhibition | significant inhibition | significant inhibition | weak inhibition | weak inhibition | significant inhibition | 
NCCCCCNc1nc(NCCc2ccc(O)cc2)nc(Nc2cccc(F)c2)n1 [Compound I] | > 10 µM | > 10 µM | > 10 µM | 18.8 µM | 10.1 µM | 49.4 µM | 11.8 µM |  | 29 µM |  |  |  |  |  |  |  | inhibition of the EGF-induced PC-3 migration or invasion
NCCCCCNc1nc(NCCc2ccc(S(N)(=O)=O)cc2)nc(Nc2cccc(F)c2)n1 [Compound II] | > 10 µM | > 10 µM | > 10 µM | 92.2 µM | 38.9 µM | 32.2 µM | 18.5 µM |  |  | weak and insignificant increase | no effect | increase the concentration of TNFα | weak and insignificant inhibition | weak inhibition | no influence | significant inhibition | 
